Assay results: patent US8058295B2, “Cystic fibrosis transmembrane conductance regulator protein inhibitors and uses thereof” (The Regents of the University of California, priority 2002, dated 2011)
Read-outs that look alike come from different tables or passages of the source.

Key:
[1] = Pharmacokinetic analysis in rats after intravenous bolus; type: in vivo
Protocol: A bolus of ^14C-CFTRinh-172 (50 μCi) in PBS containing 3% DMSO (titrated to pH 7.4 using NaOH) was administered intravenously in rats over 1 min (male Sprague-Dawley rats, 360-420 grams) by an indwelling jugular catheter. Blood was collected from the catheter at specified times. ^14C-Radioactivity was determined in plasma (isolated by centrifugation of whole blood at 14,000 g for 10 min) by scintillation counting (Scintiverse SE, Fisher, Calif.) using a LS-6500 Multi-Purpose Scintillation Counter (Beckman). Pharmacokinetic analysis was done using WinNonLin software (Pharsight). Rats were sacrificed by pentobarbital overdose after collection of the final blood/tissue samples. All animal procedures were approved by the UCSF Committee on Animal Research.

cellular cAMP production = assay: Intracellular cAMP assay in FRT cells; type: cell-based, rat
[2] = pKa by spectrophotometric pH titration; type: physicochemical
[3] = test system: cholera toxin-induced fluid secretion; parameters: species or system rats; conditions: in vivo
CFTR = target: T1, CFTR (Mus musculus, UniProt P26361); assay: Short-circuit current in mouse ileum
T1 construct: from tissue; host or cells: mouse ileum (wildtype CD1 mice)
T1 sequence (P26361 whole entry): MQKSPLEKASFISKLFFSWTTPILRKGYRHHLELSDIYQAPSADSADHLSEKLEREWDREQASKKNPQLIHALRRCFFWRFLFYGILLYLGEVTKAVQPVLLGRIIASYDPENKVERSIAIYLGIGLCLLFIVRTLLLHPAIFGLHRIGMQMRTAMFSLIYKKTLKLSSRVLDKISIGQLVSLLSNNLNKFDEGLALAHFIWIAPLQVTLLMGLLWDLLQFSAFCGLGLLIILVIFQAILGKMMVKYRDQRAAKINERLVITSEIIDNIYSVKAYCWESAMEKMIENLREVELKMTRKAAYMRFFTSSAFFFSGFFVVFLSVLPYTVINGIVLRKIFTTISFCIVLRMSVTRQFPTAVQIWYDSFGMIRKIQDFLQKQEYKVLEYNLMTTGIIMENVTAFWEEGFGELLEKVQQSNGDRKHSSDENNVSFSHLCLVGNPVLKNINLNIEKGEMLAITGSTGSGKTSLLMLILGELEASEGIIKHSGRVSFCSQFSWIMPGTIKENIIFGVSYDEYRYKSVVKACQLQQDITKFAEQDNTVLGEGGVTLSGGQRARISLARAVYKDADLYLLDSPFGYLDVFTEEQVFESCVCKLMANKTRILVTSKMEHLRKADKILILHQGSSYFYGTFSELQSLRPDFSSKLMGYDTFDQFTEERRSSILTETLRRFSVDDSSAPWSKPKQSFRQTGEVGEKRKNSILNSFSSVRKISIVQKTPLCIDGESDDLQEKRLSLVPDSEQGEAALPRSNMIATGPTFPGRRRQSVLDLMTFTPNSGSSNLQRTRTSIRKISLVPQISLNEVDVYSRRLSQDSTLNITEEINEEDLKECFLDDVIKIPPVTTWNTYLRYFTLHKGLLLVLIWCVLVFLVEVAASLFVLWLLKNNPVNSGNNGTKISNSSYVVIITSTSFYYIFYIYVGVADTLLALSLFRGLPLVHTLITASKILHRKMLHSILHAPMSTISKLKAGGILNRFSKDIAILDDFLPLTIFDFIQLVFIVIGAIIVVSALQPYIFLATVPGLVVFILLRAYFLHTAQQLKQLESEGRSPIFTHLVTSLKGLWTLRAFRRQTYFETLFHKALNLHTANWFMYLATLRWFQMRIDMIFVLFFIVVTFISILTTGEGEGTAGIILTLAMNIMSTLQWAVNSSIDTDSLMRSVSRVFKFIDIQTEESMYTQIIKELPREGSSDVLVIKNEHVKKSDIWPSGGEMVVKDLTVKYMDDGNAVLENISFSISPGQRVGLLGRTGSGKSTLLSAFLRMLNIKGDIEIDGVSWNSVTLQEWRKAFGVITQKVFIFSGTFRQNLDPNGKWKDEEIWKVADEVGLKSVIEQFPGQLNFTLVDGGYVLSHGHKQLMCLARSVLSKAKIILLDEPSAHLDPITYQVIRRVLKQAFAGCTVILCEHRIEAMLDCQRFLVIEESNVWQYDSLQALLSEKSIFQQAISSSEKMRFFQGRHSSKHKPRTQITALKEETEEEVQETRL

[4] = test system: cholera toxin-induced intestinal fluid secretion; parameters: species or system mice; conditions: mouse, in vivo, po
urea transporter (UT-B) = target: T2, urea transporter (UT-B) (Homo sapiens, UniProt Q13336); assay: Urea transporter block; conditions: 5 μM
T2 sequence (Q13336 1-389): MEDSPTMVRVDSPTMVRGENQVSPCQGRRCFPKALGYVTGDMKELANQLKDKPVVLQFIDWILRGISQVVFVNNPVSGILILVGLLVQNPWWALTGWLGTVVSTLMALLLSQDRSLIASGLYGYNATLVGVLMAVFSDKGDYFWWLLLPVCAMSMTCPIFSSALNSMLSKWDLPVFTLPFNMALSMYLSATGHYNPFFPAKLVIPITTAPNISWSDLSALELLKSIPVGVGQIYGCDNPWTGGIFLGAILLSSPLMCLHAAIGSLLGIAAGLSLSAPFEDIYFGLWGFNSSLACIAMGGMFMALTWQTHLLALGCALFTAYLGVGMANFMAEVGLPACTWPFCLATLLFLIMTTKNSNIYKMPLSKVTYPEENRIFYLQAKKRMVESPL

[5] = test system: cholera toxin-induced fluid secretion; parameters: species or system mice; conditions: mouse, in vivo, po
wildtype CFTR = wildtype CFTR (Homo sapiens, UniProt P13569); assay: YFP fluorescence assay of CFTR-mediated I^− transport in FRT cells; type: cell-based; parameters: expressed in transfected cells; host or cells: Fischer rat thyroid (FRT) cells
wildtype CFTR, sequence (P13569 whole entry): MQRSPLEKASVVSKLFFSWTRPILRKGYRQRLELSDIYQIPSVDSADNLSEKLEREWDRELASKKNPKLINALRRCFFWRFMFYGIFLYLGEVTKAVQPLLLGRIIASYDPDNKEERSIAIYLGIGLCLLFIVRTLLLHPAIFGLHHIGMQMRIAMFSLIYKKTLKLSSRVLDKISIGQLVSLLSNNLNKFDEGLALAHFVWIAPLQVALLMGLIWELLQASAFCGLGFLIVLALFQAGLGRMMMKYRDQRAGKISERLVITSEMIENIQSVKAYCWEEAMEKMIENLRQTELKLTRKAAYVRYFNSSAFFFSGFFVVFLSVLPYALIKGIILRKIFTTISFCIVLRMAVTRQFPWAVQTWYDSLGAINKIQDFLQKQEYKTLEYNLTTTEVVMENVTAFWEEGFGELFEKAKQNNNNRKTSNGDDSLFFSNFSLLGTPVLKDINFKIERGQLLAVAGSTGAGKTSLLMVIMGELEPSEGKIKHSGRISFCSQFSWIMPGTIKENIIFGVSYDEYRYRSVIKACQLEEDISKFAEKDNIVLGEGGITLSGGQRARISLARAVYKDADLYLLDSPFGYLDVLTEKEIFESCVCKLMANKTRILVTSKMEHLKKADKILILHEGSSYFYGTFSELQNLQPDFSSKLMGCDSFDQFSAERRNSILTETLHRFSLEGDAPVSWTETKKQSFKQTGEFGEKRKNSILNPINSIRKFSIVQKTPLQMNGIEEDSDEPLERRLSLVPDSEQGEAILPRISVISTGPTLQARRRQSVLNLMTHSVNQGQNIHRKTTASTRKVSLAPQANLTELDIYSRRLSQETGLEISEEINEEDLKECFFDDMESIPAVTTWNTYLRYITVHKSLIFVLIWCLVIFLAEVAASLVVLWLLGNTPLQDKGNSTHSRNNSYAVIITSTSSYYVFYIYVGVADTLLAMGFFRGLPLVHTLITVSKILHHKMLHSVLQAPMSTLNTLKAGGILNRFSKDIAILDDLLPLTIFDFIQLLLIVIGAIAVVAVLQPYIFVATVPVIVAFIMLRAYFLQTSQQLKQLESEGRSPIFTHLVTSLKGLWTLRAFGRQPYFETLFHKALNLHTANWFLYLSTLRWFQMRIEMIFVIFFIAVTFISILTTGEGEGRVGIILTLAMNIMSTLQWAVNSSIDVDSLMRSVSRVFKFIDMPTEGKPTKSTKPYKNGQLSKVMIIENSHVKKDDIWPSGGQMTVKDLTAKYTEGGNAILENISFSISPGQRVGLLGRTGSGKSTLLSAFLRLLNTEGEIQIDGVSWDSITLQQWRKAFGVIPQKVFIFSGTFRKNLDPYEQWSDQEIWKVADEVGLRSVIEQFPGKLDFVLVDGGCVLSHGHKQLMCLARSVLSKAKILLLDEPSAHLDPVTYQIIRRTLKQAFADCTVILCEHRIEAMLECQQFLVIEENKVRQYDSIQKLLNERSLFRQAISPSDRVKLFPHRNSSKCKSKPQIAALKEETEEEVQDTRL
Protocol: FIG. 1A is a schematic representation of a screening technique used for detection of CFTR inhibitors. CFTR was maximally stimulated by multiple agonists in stably transfected epithelial cells co-expressing human CFTR and a yellow fluorescent protein (YFP) having Cl^−/I^− sensitive fluorescence. After addition of a test compound, I^− influx was induced by adding an I^− containing solution.
Cells were plated in 96-well black-walled microplates (Corning Costar) at a density of 20,000 cells per well in Coon's modified F12 medium supplemented with 5% fetal calf serum, 2 mM L-glutamine, 100 U/mL penicillin, and 100 μg/mL streptomycin. Assays were done at 48 hours after plating at which time cells were just confluent (˜40,000 cells per well).
Assays were done using a customized screening system (Beckman) consisting of a 3-meter robotic arm, CO2 incubator, plate washer, liquid handling workstation, bar code reader, delidding station, and two FluoStar fluorescence plate readers (BMG Labtechnologies, Offenburg, Germany), each equipped with two syringe pumps and HQ500/20X (500±10 nm) excitation and HQ535/30M (535±15 nm) emission filters (Chroma). The robotic system was integrated using SAMI version 3.3 software (Beckman) modified for two plate readers. Custom software was written in VBA (Visual Basic for Applications) to compute baseline-subtracted, normalized fluorescence slopes (giving halide influx rates) from stored data files.
The assay was set-up by loading the incubator (37° C., 90% humidity, 5% CO2) with 40-60 96-well plates containing the FRT cells, and loading a carousel with 96-well plates containing test compounds and disposable plastic pipette tips. To initiate the assay, each well of a 96-well plate was washed 3 times in PBS (300 μL/wash), leaving 50 μL PBS. Ten μL of a CFTR-activating cocktail (5 μM forskolin, 100 μM IBMX, 25 μM apigenin in PBS) was added, and after 5 min one test compound (0.5 μL of 1 mM DMSO solution) was added to each well to give 10 μM final concentration. After 10 min, 96-well plates were transferred to a plate reader for fluorescence assay. Each well was assayed individually for CFTR-mediated I^− transport by recording fluorescence continuously (200 ms per point) for 2 s (baseline) and then for 12 s after rapid (<0.5 s) addition of 160 μL of isosmolar PBS in which 137 mM Cl^− was replaced by I^−.
The primary screening technique used to identify the compounds of the invention was designed to identify inhibitors of CFTR Cl^− conductance by direct CFTR-inhibitor interaction. CFTR was pre-stimulated in CFTR-expressing FRT cells by an activating cocktail containing forskolin, IBMX and apigenin, as shown schematically in FIG. 1A. The activation of CFTR by multiple mechanisms (cAMP elevation, phosphodiesterase inhibition, and direct CFTR binding) allowed identification of inhibitors that blocked the CFTR Cl^− transporting pathway directly rather than more proximal step(s) in a signaling pathway. The FRT cells co-expressed a yellow fluorescent protein-based Cl^−/I^− sensor that provided a quantitative fluorescence read-out of inhibition potency (See, e.g., Jayaraman et al., 2000, J. Biol. Chem. 275:6047-6050; Galietta et al., 2001, Am. J. Physiol. 281:C1734-C1742.). After CFTR pre-stimulation and compound addition, cells were subjected to an inwardly-directed I^− gradient to drive I^− influx and produce decreasing fluorescence. Each assay consisted of recording baseline fluorescence for 2 seconds, followed by 12 seconds of continuous recording of fluorescence after rapid addition of the I^− containing solution. Compounds were tested separately at 10 μM concentration in a 96-well format utilizing a fully-automated high-throughput screening apparatus (see Example 2 below).

[6] = rat, i.v. bolus, 2-compartment model

Question: What does the source list for O=C(O)c1ccc(/C=C2\SC(=S)N(c3cccc(C(F)(F)F)c3)C2=O)cc1 [CFTRinh-172, 3-[(3-trifluoromethyl)phenyl]-5-[(4-carboxyphenyl)methylene]-2-thioxo-4-thiazolidinone]?
Answer: detection in plasma ([1]; 72 hr after administration): No ^14C-labeled CFTRinh-172 was detected; detection in liver or kidney homogenates ([1]; 14 days after administration): No ^14C-labeled CFTRinh-172 was detected; area under curve (AUC) [1, 6]: 3.8 µg·h/mL; clearance [1, 6]: 99 mL/h; elimination half-time [1, 6]: 10.3 h; maximum serum concentration [1, 6]: 3.2 µg/mL; redistribution half-time [1, 6]: 0.14 h; volume of distribution [1, 6]: 1.2 L; effect on cellular cAMP production (cellular cAMP production; 5 μM): did not affect; cAMP content (cellular cAMP production; 30 min after 20 μM forskolin, + inhibitor (n=3)): 1140±50 fmol/well; fraction present as the unionized acid ([2]; physiological pH): ~1%; pKa ([2]; spectrophotometric pH titration): 5.5; cholera-toxin induced fluid secretion in rat intestinal loops [3]: prevented cholera-toxin induced fluid secretion; IC50 (CFTR; forskolin (cAMP-dependent chloride secretion), read-out: concentration for fifty percent inhibition of short-circuit current): ~5 µM; IC50 (CFTR; intact intestine, read-out: apparent potency for inhibition of intestinal short-circuit current): 2 to 5 µM; intestinal fluid accumulation (ratio of intestinal weight before vs. after luminal fluid removal) [4]: remarkably reduced intestinal fluid accumulation; block of urea transporter (UT-B) (urea transporter (UT-B)): did not block; cholera toxin-induced fluid secretion [5]: Inhibition of cholera toxin-induced fluid secretion; concentration giving significant CFTR inhibition (wildtype CFTR; dose-inhibition, FIG. 2A): 0.3 to 0.6 µM; relative potency (CFTR inhibition) (wildtype CFTR; relative to CFTRinh-172 = 1.0): 1.0
